This note sets out measurements from ChEMBL document CHEMBL5303573, “Mapping human microbiome drug metabolism by gut bacteria and their genes” (Nature, 2019).

The structures appear in SMILES notation.

A short description of one data set: The drug is tested on Eubacterium ventriosum strain: ATCC27560 for biotransformation. The drug concentrations were measured before and after a 12-h incubation by liquid-chromatography-coupled mass spectrometry (LC–MS). It is filed as ADME. Details: dose 2 uM, timepoint 0 vs 12 hours. The settings on record: 2 µM.
For the compound `CC(=O)O[C@]1(C(C)=O)CC[C@H]2[C@@H]3C=C(C)C4=CC(=O)CC[C@]4(C)[C@H]3CC[C@@]21C` [MEGESTROL ACETATE], the “Bacterial Biotransformation” value is recorded as “Compound NOT metabolized”.

Another data set can be described thus: The drug is tested on Bifidobacterium longum subsp. Infantis strain: CCUG52486 for biotransformation. The drug concentrations were measured before and after a 12-h incubation by liquid-chromatography-coupled mass spectrometry (LC–MS). The following applies: 2 µM.
With `Cc1ccccc1N1C(=O)c2cc(S(N)(=O)=O)c(Cl)cc2NC1C` (centres undefined) [METOLAZONE], the “Bacterial Biotransformation” value is “Compound NOT metabolized”.
`CC(=O)O[C@]1(C(C)=O)CC[C@H]2[C@@H]3C=C(C)C4=CC(=O)CC[C@]4(C)[C@H]3CC[C@@]21C` [MEGESTROL ACETATE]: the “Bacterial Biotransformation” value is reported as “Compound NOT metabolized”.

The conditions of a further data set: limosilactobacillus reuteri cf48-3a, 12 h, 2 µM.
Description: The drug is tested on Lactobacillus reuteri CF48-3A strain: BEI HM-102 for biotransformation. The drug concentrations were measured before and after a 12-h incubation by liquid-chromatography-coupled mass spectrometry (LC–MS)
Consider `Cc1ccccc1N1C(=O)c2cc(S(N)(=O)=O)c(Cl)cc2NC1C` (centres undefined) [METOLAZONE], for which the “Bacterial Biotransformation” value was “Compound NOT metabolized”.
Same read-out and setting: the entry for `CC(=O)O[C@]1(C(C)=O)CC[C@H]2[C@@H]3C=C(C)C4=CC(=O)CC[C@]4(C)[C@H]3CC[C@@]21C` [MEGESTROL ACETATE] is “Compound NOT metabolized”.

The next data set in a line: The drug is tested on Ruminococcus gnavus strain: ATCC29149 for biotransformation. The drug concentrations were measured before and after a 12-h incubation by liquid-chromatography-coupled mass spectrometry (LC–MS). The following applies: mediterraneibacter gnavus, 2 µM.
Consider `Cc1ccccc1N1C(=O)c2cc(S(N)(=O)=O)c(Cl)cc2NC1C` (centres undefined) [METOLAZONE], for which the “Bacterial Biotransformation” value is given as “Compound NOT metabolized”.
On the same count and under the same terms, the entry for `CC(=O)O[C@]1(C(C)=O)CC[C@H]2[C@@H]3C=C(C)C4=CC(=O)CC[C@]4(C)[C@H]3CC[C@@]21C` [MEGESTROL ACETATE] is “Compound NOT metabolized”.

The conditions of another data set: bacteroides fragilis, 12 h, 2 µM.
Description: The drug is tested on Bacteroides fragilis strain: NCTC 9343 for biotransformation. The drug concentrations were measured before and after a 12-h incubation by liquid-chromatography-coupled mass spectrometry (LC–MS)
`Cc1ccccc1N1C(=O)c2cc(S(N)(=O)=O)c(Cl)cc2NC1C` (centres undefined) [METOLAZONE]: the “Bacterial Biotransformation” value is “Compound NOT metabolized”.
On the same count and under the same terms, in the case of `CC(=O)O[C@]1(C(C)=O)CC[C@H]2[C@@H]3C=C(C)C4=CC(=O)CC[C@]4(C)[C@H]3CC[C@@]21C` [MEGESTROL ACETATE] it was “Compound metabolized”.

A further data set is described as follows: The drug is tested on Bacteroides dorei strain: DSM17855 for biotransformation. The drug concentrations were measured before and after a 12-h incubation by liquid-chromatography-coupled mass spectrometry (LC–MS). The settings on record: phocaeicola dorei, 2 µM.
As for `CC(=O)O[C@]1(C(C)=O)CC[C@H]2[C@@H]3C=C(C)C4=CC(=O)CC[C@]4(C)[C@H]3CC[C@@]21C` [MEGESTROL ACETATE], the “Bacterial Biotransformation” value is on record as “Compound metabolized”.

The conditions of the next data set: bacteroides intestinalis, 12 h, 2 µM.
Description: The drug is tested on Bacteroides intestinalis strain: DSM17393 for biotransformation. The drug concentrations were measured before and after a 12-h incubation by liquid-chromatography-coupled mass spectrometry (LC–MS)
In the case of `Cc1ccccc1N1C(=O)c2cc(S(N)(=O)=O)c(Cl)cc2NC1C` (centres undefined) [METOLAZONE], the “Bacterial Biotransformation” value was “Compound NOT metabolized”.
With `CC(=O)O[C@]1(C(C)=O)CC[C@H]2[C@@H]3C=C(C)C4=CC(=O)CC[C@]4(C)[C@H]3CC[C@@]21C` [MEGESTROL ACETATE], the “Bacterial Biotransformation” value is recorded as “Compound metabolized”.

A short description of a further data set: The drug is tested on Bacteroides finegoldii strain: DSM17565 for biotransformation. The drug concentrations were measured before and after a 12-h incubation by liquid-chromatography-coupled mass spectrometry (LC–MS). The settings on record: 2 µM.
On to `CC(=O)O[C@]1(C(C)=O)CC[C@H]2[C@@H]3C=C(C)C4=CC(=O)CC[C@]4(C)[C@H]3CC[C@@]21C` [MEGESTROL ACETATE], for which the “Bacterial Biotransformation” value is listed as “Compound NOT metabolized”.

A further data set in a line: The drug is tested on Anaerotruncus colihominis strain: DSM17241 for biotransformation. The drug concentrations were measured before and after a 12-h incubation by liquid-chromatography-coupled mass spectrometry (LC–MS). The settings on record: 2 µM.
`CC(=O)O[C@]1(C(C)=O)CC[C@H]2[C@@H]3C=C(C)C4=CC(=O)CC[C@]4(C)[C@H]3CC[C@@]21C` [MEGESTROL ACETATE]: the “Bacterial Biotransformation” value is recorded as “Compound NOT metabolized”.

Another data set can be described thus: The drug is tested on Eubacterium hallii strain: DSM3353 for biotransformation. The drug concentrations were measured before and after a 12-h incubation by liquid-chromatography-coupled mass spectrometry (LC–MS). The settings on record: anaerobutyricum hallii, 2 µM.
Turning to `Cc1ccccc1N1C(=O)c2cc(S(N)(=O)=O)c(Cl)cc2NC1C` (centres undefined) [METOLAZONE], the “Bacterial Biotransformation” value is listed as “Compound NOT metabolized”.
Same read-out and setting: in the case of `CC(=O)O[C@]1(C(C)=O)CC[C@H]2[C@@H]3C=C(C)C4=CC(=O)CC[C@]4(C)[C@H]3CC[C@@]21C` [MEGESTROL ACETATE] it was “Compound NOT metabolized”.

Another data set can be described thus: The drug is tested on Bacteroides fragilis strain: HMW615 for biotransformation. The drug concentrations were measured before and after a 12-h incubation by liquid-chromatography-coupled mass spectrometry (LC–MS). The settings on record: 2 µM.
In the case of `Cc1ccccc1N1C(=O)c2cc(S(N)(=O)=O)c(Cl)cc2NC1C` (centres undefined) [METOLAZONE], the “Bacterial Biotransformation” value was “Compound NOT metabolized”.
Regarding `CC(=O)O[C@]1(C(C)=O)CC[C@H]2[C@@H]3C=C(C)C4=CC(=O)CC[C@]4(C)[C@H]3CC[C@@]21C` [MEGESTROL ACETATE], the “Bacterial Biotransformation” value is “Compound metabolized”.

For the next data set the following is noted: akkermansia muciniphila, 12 h, 2 µM.
Description: The drug is tested on Akkermansia muciniphila strain: ATCC BAA-835 for biotransformation. The drug concentrations were measured before and after a 12-h incubation by liquid-chromatography-coupled mass spectrometry (LC–MS)
Turning to `Cc1ccccc1N1C(=O)c2cc(S(N)(=O)=O)c(Cl)cc2NC1C` (centres undefined) [METOLAZONE], the “Bacterial Biotransformation” value is on record as “Compound NOT metabolized”.

The conditions of a further data set: bacteroides thetaiotaomicron, 12 h, 2 µM.
Description: The drug is tested on Bacteroides thetaiotaomicron strain: 3731 for biotransformation. The drug concentrations were measured before and after a 12-h incubation by liquid-chromatography-coupled mass spectrometry (LC–MS)
Turning to `Cc1ccccc1N1C(=O)c2cc(S(N)(=O)=O)c(Cl)cc2NC1C` (centres undefined) [METOLAZONE], the “Bacterial Biotransformation” value is on record as “Compound NOT metabolized”.
Same read-out and setting: the entry for `CC(=O)O[C@]1(C(C)=O)CC[C@H]2[C@@H]3C=C(C)C4=CC(=O)CC[C@]4(C)[C@H]3CC[C@@]21C` [MEGESTROL ACETATE] is “Compound metabolized”.

For a further data set the following is noted: roseburia intestinalis, 12 h, 2 µM.
Description: The drug is tested on Roseburia intestinalis strain: L1-82 for biotransformation. The drug concentrations were measured before and after a 12-h incubation by liquid-chromatography-coupled mass spectrometry (LC–MS)
Turning to `Cc1ccccc1N1C(=O)c2cc(S(N)(=O)=O)c(Cl)cc2NC1C` (centres undefined) [METOLAZONE], the “Bacterial Biotransformation” value was “Compound NOT metabolized”.
As to `CC(=O)O[C@]1(C(C)=O)CC[C@H]2[C@@H]3C=C(C)C4=CC(=O)CC[C@]4(C)[C@H]3CC[C@@]21C` [MEGESTROL ACETATE], the “Bacterial Biotransformation” value is listed as “Compound NOT metabolized”.

The next data set in a line: The drug is tested on Bifidobacterium ruminantium strain: fecal isolate for biotransformation. The drug concentrations were measured before and after a 12-h incubation by liquid-chromatography-coupled mass spectrometry (LC–MS). The following applies: 2 µM.
For the compound `Cc1ccccc1N1C(=O)c2cc(S(N)(=O)=O)c(Cl)cc2NC1C` (centres undefined) [METOLAZONE], the “Bacterial Biotransformation” value was “Compound NOT metabolized”.
Still for that read-out and setting: in the case of `CC(=O)O[C@]1(C(C)=O)CC[C@H]2[C@@H]3C=C(C)C4=CC(=O)CC[C@]4(C)[C@H]3CC[C@@]21C` [MEGESTROL ACETATE] it was “Compound metabolized”.

The nature of a further data set: The drug is tested on Clostridium ramosum strain: DSM1402 for biotransformation. The drug concentrations were measured before and after a 12-h incubation by liquid-chromatography-coupled mass spectrometry (LC–MS). The settings on record: thomasclavelia ramosa, 2 µM.
As for `Cc1ccccc1N1C(=O)c2cc(S(N)(=O)=O)c(Cl)cc2NC1C` (centres undefined) [METOLAZONE], the “Bacterial Biotransformation” value is given as “Compound NOT metabolized”.
With `CC(=O)O[C@]1(C(C)=O)CC[C@H]2[C@@H]3C=C(C)C4=CC(=O)CC[C@]4(C)[C@H]3CC[C@@]21C` [MEGESTROL ACETATE], the “Bacterial Biotransformation” value was “Compound NOT metabolized”.

A short description of a further data set: The drug is tested on Bacteroides xylanisolvens strain: DSM18836 for biotransformation. The drug concentrations were measured before and after a 12-h incubation by liquid-chromatography-coupled mass spectrometry (LC–MS). The settings on record: 2 µM.
`Cc1ccccc1N1C(=O)c2cc(S(N)(=O)=O)c(Cl)cc2NC1C` (centres undefined) [METOLAZONE]: the “Bacterial Biotransformation” value is listed as “Compound NOT metabolized”.
Still for that read-out and setting: the entry for `CC(=O)O[C@]1(C(C)=O)CC[C@H]2[C@@H]3C=C(C)C4=CC(=O)CC[C@]4(C)[C@H]3CC[C@@]21C` [MEGESTROL ACETATE] is “Compound metabolized”.

Another data set can be described thus: The drug is tested on Collinsella aerofaciens strain: ATCC25986 for biotransformation. The drug concentrations were measured before and after a 12-h incubation by liquid-chromatography-coupled mass spectrometry (LC–MS). The settings on record: 2 µM.
For the compound `Cc1ccccc1N1C(=O)c2cc(S(N)(=O)=O)c(Cl)cc2NC1C` (centres undefined) [METOLAZONE], the “Bacterial Biotransformation” value is reported as “Compound NOT metabolized”.
On the same count and under the same terms, in the case of `CC(=O)O[C@]1(C(C)=O)CC[C@H]2[C@@H]3C=C(C)C4=CC(=O)CC[C@]4(C)[C@H]3CC[C@@]21C` [MEGESTROL ACETATE] it was “Compound metabolized”.

The nature of the next data set: The drug is tested on Providencia stuartii strain: ATCC25827 for biotransformation. The drug concentrations were measured before and after a 12-h incubation by liquid-chromatography-coupled mass spectrometry (LC–MS). The settings on record: 2 µM.
With `Cc1ccccc1N1C(=O)c2cc(S(N)(=O)=O)c(Cl)cc2NC1C` (centres undefined) [METOLAZONE], the “Bacterial Biotransformation” value is “Compound NOT metabolized”.
Same read-out and setting: the entry for `CC(=O)O[C@]1(C(C)=O)CC[C@H]2[C@@H]3C=C(C)C4=CC(=O)CC[C@]4(C)[C@H]3CC[C@@]21C` [MEGESTROL ACETATE] is “Compound metabolized”.

Another data set is described as follows: The drug is tested on Bacteroides sp. WH2 strain: WH2 for biotransformation. The drug concentrations were measured before and after a 12-h incubation by liquid-chromatography-coupled mass spectrometry (LC–MS). The settings on record: bacteroides sp. wh2, 12 h, 2 µM.
For `Cc1ccccc1N1C(=O)c2cc(S(N)(=O)=O)c(Cl)cc2NC1C` (centres undefined) [METOLAZONE], the “Bacterial Biotransformation” value is recorded as “Compound NOT metabolized”.
